The values below are quoted from earlier work in US8715726B2 (Eurofarma Laboratories S.A., priority 2007, dated 2014).

SMILES strings stand for the structures.

With `COc1cccc(C2(O)CCCCC2CN(C)C)c1` (stereo not drawn) [Tramadol, 2-((dimethylamino)methyl)-1-(m-methoxyphenyl)-cyclohexanol], the metabolism result (in vivo) is “extensively metabolised in the liver”. Further, for the setting “oral administration”, the “dose excreted in the form of metabolites” value is 60% and the “dose excreted in the urine not having been metabolised” value was “Approximately 30%”.
